From ChEMBL document CHEMBL1201862, “PubChem BioAssay data set” (2004)
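Dose response: 5 concentrations. Exposure: 48 h. Format: 96-well plates. Endpoint: linear interpolation; highest concentration if not reached. At the GI50, growth is halved.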 Activity calls are given as the source filed them. Cut-off read from the data, not from the text of the source: active = GI50 up to about 1.1 µM and inactive = higher.

Legend:
Assay in all cases: DTP human tumour cell line panel, 48 h
Malme-3M = test system: Malme-3M
SW-620 = test system: SW-620
SNB-19 = test system: SNB-19
SK-MEL-28 = test system: SK-MEL-28
DU-145 = test system: DU-145
CCRF-CEM = test system: CCRF-CEM
ACHN = test system: ACHN
SK-MEL-5 = test system: SK-MEL-5
UACC-62 = test system: UACC-62
MDA-MB-435 = test system: MDA-MB-435
M14 = test system: M14
DMS-114 = test system: DMS-114
IGROV-1 = test system: IGROV-1
A549 = test system: A549
SN12C = test system: SN12C
A498 = test system: A498
SK-MEL-2 = test system: SK-MEL-2
786-0 = test system: 786-0
NCI-H226 = test system: NCI-H226

CN(C)c1ccc(/N=C2/C=CC(=C(C#N)C#N)c3ccccc32)cc1
GI50 (Malme-3M): 0.625 µM (active) | GI50 (SW-620): 0.114 µM (active) | GI50 (SNB-19): 0.536 µM (active) | GI50 (SK-MEL-28): 0.52 µM (active) | GI50 (DU-145): 0.259 µM (active) | GI50 (CCRF-CEM): 0.094 µM (active) | GI50 (ACHN): 0.485 µM (active) | GI50 (SK-MEL-5): 0.133 µM (active) | GI50 (UACC-62): 0.386 µM (active) | GI50 (MDA-MB-435): 0.0391 µM (active) | GI50 (M14): 0.145 µM (active) | GI50 (DMS-114): 0.234 µM (active) | GI50 (IGROV-1): 0.222 µM (active) | GI50 (A549): 0.436 µM (active) | GI50 (SN12C): 0.332 µM (active) | GI50 (A498): 0.392 µM (active) | GI50 (SK-MEL-2): 0.337 µM (active) | GI50 (786-0): 0.385 µM (active) | GI50 (NCI-H226): 0.236 µM (active)

O=C(Cn1ccnc1[N+](=O)[O-])c1ccc(F)cc1
GI50 (Malme-3M): > 100 µM (inactive) | GI50 (SW-620): > 100 µM (inactive) | GI50 (SNB-19): > 100 µM (inactive) | GI50 (SK-MEL-28): > 100 µM (inactive) | GI50 (CCRF-CEM): > 100 µM (inactive) | GI50 (ACHN): > 100 µM (inactive) | GI50 (SK-MEL-5): > 100 µM (inactive) | GI50 (UACC-62): > 100 µM (inactive) | GI50 (M14): > 100 µM (inactive) | GI50 (DMS-114): > 100 µM (inactive) | GI50 (IGROV-1): > 100 µM (inactive) | GI50 (A549): > 100 µM (inactive) | GI50 (SN12C): > 100 µM (inactive) | GI50 (A498): > 100 µM (inactive) | GI50 (SK-MEL-2): > 100 µM (inactive) | GI50 (786-0): > 100 µM (inactive) | GI50 (NCI-H226): > 100 µM (inactive)
